Literature values, collected in US12485093B2, “Composition for use as an antiviral in the form of nasal drops and in nebulisers” (DERMOPARTNERS, S.L., priority 2021, dated 2025).

Test system: SARS-CoV-2
Conditions: concentration of 5% m/v

## OC[C@@H](O)[C@H](O)[C@@H](O)CO [xylitol]
  viricidal and antiviral activity on SARS-CoV-2: viricidal and exhibit antiviral activity
